Assays:
[1] = biological target: Calcium/calmodulin-dependent protein kinase type II subunit beta (Homo sapiens) (UniProt Q13554); assay: Selectivity interaction (KinomeScan (DiscoverX)) EUB0001049a CAMK2B; conditions: at 1 µM
[2] = biological target: Serine/threonine-protein kinase Nek7 (Homo sapiens) (UniProt Q8TDX7); assay: Selectivity interaction (KinomeScan (DiscoverX)) EUB0000666a NEK7; conditions: at 10 µM
[3] = biological target: T1, Serine/threonine-protein kinase 4 (Homo sapiens) (UniProt Q13043); assay: Selectivity interaction (Kinase panel (DSF assay)) EUB0001558a STK4
T1 sequence (whole entry): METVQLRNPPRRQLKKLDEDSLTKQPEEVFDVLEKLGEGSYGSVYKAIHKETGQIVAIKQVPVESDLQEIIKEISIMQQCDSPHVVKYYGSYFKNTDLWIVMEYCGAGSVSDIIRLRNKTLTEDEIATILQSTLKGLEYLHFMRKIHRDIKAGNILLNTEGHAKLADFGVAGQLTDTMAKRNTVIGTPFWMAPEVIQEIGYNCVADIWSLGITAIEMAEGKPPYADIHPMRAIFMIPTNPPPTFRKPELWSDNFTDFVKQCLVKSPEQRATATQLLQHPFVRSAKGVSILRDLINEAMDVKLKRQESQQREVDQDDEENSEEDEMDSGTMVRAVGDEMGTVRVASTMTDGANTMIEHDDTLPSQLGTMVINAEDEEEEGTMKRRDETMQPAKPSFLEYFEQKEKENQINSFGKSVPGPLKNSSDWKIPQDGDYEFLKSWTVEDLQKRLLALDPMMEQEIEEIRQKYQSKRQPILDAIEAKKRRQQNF

[4] = biological target: T2, Phosphatidylinositol 4,5-bisphosphate 3-kinase catalytic subunit delta isoform (Homo sapiens) (UniProt O00329); assay: Selectivity interaction (ActivX KiNativ screen (kinase selectivity in THP-1 cell lysates)) EUB0000639a PIK3CD; format: subcellular; conditions: lysate, at 0.2 µM
T2 sequence (whole entry): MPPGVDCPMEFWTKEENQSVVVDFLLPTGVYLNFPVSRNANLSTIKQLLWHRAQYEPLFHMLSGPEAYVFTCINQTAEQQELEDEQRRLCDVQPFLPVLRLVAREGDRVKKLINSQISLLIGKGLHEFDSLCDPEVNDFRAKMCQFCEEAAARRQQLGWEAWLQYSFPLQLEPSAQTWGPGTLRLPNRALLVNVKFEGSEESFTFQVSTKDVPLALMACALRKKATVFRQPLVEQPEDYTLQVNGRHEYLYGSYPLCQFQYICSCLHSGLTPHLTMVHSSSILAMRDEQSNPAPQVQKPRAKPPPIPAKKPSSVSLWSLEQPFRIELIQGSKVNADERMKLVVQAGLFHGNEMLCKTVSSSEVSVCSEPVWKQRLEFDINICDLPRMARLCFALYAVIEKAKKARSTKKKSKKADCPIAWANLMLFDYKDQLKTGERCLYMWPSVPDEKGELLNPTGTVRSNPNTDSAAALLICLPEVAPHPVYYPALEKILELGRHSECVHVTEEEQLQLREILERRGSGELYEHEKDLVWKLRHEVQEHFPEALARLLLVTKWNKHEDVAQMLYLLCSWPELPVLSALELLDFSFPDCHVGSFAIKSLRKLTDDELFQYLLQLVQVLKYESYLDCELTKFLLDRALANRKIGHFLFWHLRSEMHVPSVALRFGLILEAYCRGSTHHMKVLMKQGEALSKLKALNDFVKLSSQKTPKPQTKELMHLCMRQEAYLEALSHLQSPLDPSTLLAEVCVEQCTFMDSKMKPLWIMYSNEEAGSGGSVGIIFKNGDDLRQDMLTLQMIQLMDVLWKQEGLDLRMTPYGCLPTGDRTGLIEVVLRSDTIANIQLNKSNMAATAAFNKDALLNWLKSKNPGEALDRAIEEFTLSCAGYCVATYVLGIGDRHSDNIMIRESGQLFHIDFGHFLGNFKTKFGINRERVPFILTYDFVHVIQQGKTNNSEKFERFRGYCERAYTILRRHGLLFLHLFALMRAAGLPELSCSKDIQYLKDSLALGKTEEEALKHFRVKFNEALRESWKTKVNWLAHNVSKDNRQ

[5] = biological target: Mitogen-activated protein kinase 1 (Homo sapiens, UniProt P28482); assay: Selectivity interaction (KinomeScan (DiscoverX)) EUB0000092b MAPK1; conditions: at 10 µM
[6] = biological target: Dual specificity protein kinase CLK2 (Homo sapiens, UniProt P49760); assay: Selectivity interaction (Ambit KINOMEscan and KiNATiv profiling in Jurkat cells) EUB0000090b CLK2; format: cell-based; conditions: at 1 µM
[7] = biological target: T3, Tyrosine-protein kinase ITK/TSK (Homo sapiens) (UniProt Q08881); assay: Selectivity interaction (KinomeScan (DiscoverX)) EUB0000045b ITK
T3 sequence (whole entry): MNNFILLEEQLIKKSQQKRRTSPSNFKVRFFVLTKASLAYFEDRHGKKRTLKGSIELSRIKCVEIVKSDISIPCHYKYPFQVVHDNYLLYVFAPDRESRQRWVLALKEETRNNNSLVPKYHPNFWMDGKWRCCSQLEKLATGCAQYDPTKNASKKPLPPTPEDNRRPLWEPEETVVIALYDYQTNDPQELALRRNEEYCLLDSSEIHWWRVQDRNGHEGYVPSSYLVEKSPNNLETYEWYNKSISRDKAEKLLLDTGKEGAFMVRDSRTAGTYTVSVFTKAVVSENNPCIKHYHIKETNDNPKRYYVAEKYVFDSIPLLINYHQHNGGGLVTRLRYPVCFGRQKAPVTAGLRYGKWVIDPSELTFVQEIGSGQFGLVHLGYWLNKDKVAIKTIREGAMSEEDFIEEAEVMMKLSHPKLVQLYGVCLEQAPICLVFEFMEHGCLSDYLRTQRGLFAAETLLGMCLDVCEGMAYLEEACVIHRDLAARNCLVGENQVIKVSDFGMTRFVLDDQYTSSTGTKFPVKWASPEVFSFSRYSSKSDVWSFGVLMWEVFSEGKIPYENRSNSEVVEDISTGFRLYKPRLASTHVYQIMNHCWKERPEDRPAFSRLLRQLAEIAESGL

[8] = biological target: Tyrosine-protein kinase Fer (Homo sapiens) (UniProt P16591); assay: Selectivity interaction (Upstate Kinase Profiler service (Millipore)) EUB0000056c FER; conditions: at 1 µM
[9] = biological target: Tyrosine-protein kinase JAK1 (Homo sapiens, UniProt P23458); assay: Selectivity interaction (SelectScreen profiling (Invitrogen)) EUB0000607a JAK1; conditions: at 2 µM
Tyrosine-protein kinase JAK1, sequence (P23458 whole entry): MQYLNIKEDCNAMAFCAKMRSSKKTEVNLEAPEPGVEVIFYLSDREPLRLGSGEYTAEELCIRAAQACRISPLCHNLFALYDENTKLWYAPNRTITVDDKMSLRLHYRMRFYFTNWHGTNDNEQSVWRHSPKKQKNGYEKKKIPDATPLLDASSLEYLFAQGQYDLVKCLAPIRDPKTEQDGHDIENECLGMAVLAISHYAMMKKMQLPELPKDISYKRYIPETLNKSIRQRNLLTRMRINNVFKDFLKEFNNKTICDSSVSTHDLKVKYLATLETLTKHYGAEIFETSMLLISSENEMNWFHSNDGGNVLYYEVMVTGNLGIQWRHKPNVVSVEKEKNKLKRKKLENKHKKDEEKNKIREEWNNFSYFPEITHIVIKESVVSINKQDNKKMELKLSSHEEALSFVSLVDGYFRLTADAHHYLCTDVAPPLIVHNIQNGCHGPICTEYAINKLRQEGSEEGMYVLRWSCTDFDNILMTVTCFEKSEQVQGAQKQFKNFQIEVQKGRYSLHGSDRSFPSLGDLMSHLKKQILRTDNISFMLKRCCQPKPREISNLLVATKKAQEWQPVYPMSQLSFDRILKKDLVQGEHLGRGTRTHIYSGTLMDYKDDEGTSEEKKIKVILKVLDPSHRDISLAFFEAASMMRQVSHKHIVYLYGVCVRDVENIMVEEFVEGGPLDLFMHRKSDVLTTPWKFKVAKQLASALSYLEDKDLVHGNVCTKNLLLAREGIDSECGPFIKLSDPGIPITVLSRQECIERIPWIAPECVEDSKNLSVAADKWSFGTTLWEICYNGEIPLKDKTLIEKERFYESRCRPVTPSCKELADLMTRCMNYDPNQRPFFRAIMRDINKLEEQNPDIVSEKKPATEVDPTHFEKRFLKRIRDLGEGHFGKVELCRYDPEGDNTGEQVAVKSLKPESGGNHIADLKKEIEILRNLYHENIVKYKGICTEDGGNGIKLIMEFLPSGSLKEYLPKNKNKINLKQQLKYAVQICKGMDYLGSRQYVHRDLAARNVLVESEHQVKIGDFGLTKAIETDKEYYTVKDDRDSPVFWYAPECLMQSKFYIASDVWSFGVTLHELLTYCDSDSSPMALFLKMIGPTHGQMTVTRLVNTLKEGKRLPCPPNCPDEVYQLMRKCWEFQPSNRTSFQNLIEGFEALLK

Tyrosine-protein kinase Fer (Homo sapiens), sequence (P16591 whole entry, looked up): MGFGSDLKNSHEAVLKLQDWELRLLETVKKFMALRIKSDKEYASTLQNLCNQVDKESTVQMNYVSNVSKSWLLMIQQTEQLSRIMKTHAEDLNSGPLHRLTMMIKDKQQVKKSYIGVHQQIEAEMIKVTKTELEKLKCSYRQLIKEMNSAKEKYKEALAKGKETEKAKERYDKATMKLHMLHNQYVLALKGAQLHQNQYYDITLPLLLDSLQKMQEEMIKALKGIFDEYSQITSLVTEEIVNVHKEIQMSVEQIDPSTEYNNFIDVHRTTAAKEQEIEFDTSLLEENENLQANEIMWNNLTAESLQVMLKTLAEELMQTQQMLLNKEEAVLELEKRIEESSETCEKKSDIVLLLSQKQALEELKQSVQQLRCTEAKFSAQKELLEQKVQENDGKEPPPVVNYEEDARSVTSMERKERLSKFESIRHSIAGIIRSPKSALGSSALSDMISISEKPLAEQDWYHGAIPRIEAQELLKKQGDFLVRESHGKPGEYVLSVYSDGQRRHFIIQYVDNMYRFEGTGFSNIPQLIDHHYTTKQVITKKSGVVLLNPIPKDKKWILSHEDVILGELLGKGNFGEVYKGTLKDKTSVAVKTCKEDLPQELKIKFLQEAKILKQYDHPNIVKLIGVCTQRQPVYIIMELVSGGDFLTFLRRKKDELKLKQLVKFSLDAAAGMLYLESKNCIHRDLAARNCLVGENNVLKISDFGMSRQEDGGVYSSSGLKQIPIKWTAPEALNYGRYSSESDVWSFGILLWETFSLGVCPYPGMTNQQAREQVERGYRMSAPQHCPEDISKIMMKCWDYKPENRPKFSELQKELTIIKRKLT
Serine/threonine-protein kinase Nek7 (Homo sapiens), sequence (Q8TDX7 whole entry, looked up): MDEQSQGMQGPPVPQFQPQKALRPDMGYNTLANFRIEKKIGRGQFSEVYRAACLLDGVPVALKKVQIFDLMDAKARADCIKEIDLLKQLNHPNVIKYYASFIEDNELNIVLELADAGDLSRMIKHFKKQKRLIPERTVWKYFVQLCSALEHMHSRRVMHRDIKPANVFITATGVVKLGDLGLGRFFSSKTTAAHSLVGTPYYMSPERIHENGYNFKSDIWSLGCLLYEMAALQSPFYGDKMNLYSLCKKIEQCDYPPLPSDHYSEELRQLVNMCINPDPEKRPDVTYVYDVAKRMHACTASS
Dual specificity protein kinase CLK2, sequence (P49760 whole entry, looked up): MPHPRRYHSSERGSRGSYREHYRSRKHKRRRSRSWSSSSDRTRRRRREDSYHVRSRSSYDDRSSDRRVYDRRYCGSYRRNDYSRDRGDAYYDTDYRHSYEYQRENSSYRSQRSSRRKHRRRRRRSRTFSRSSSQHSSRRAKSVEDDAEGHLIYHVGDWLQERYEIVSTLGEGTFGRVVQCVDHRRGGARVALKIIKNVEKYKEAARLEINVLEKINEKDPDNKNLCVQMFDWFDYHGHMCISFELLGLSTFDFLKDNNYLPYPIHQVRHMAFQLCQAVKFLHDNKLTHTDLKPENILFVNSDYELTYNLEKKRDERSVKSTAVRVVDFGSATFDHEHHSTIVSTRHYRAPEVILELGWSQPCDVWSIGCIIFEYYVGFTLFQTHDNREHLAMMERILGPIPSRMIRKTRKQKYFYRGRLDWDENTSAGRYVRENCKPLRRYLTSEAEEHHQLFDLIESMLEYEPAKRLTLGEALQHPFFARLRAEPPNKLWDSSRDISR
Calcium/calmodulin-dependent protein kinase type II subunit beta (Homo sapiens), sequence (Q13554 whole entry): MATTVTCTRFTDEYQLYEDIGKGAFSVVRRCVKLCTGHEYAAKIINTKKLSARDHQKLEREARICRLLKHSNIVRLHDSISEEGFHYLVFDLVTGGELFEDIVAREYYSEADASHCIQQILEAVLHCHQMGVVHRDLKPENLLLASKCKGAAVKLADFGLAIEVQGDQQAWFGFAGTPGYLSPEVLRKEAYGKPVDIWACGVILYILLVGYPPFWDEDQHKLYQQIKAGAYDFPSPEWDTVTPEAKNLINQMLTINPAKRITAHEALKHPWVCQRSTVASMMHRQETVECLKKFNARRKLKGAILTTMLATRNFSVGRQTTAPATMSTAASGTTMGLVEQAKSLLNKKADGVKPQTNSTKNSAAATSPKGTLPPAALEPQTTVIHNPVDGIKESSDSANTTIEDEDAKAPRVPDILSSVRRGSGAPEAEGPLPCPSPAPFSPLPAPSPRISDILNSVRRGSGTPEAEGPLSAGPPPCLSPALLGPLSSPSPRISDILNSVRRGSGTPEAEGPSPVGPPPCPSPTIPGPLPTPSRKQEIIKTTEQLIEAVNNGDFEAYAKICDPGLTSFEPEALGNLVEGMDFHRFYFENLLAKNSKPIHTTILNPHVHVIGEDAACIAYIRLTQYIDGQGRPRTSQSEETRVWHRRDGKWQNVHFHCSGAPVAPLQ
Mitogen-activated protein kinase 1, sequence (P28482 whole entry): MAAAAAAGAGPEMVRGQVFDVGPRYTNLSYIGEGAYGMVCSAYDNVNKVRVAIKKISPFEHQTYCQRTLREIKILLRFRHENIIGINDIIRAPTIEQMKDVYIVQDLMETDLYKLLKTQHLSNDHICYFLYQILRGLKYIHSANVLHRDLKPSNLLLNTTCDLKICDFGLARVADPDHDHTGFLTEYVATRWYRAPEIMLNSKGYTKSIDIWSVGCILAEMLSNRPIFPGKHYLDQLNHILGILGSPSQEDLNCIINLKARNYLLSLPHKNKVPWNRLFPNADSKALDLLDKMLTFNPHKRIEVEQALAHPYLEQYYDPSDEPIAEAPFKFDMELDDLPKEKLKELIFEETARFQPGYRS

Structure (SMILES): COc1cc(Nc2nc(C)cc(-c3cnn4nc(OC)ccc34)n2)cc(C(F)(F)F)c1
- % of control [1]: 93%

Structure (SMILES): O=C(NOC[C@H](O)CO)c1ccc(F)c(F)c1Nc1ccc(I)cc1F
- % of control [2]: 95%

Structure (SMILES): CC(C)(O)[C@H](F)CN1Cc2cc(NC(=O)c3cnn4cccnc34)c(N3CCOCC3)cc2C1=O
- dTM [3]: 1.9 K

Structure (SMILES): CC[C@@H]1[C@H](F)C(=O)N[C@@H]1COc1nccc2cc(C(N)=O)c(OC)cc12 [ZIMLOVISERTIB]
- % of inhibition [4]: 4.7%

Structure (SMILES): CCC(=O)N1CCN(c2ccc(-n3c(=O)ccc4cnc5ccc(-c6cnc7ccccc7c6)cc5c43)cc2C(F)(F)F)CC1
- % of control [5]: 100%

Structure (SMILES): CN(C)C/C=C/C(=O)Nc1ccc(C(=O)N2CCCC(Nc3ncc(Cl)c(-c4c[nH]c5ccccc45)n3)C2)cc1 (stereo not given)
- % of control [6]: 55%

Structure (SMILES): C=CC(=O)Nc1cc(-n2c(=O)ccc3cnc4ccc(-c5ccc(NS(C)(=O)=O)cc5)cc4c32)ccc1C
- % of control ([7]; at 1 µM): 52%
- % of control ([7]; at 10 µM): 43%

Structure (SMILES): Cc1ccc(-c2ccc3c(ccc4sc5c(c43)NC[C@@H](C)NC5=O)n2)cn1
- % of inhibition [8]: 11%

Structure (SMILES): CNC(=O)Nc1ccc(-c2nc(N3CC4CCC(C3)O4)c3cnn(C4CCC5(CC4)OCCO5)c3n2)cc1
- % of inhibition [9]: 5%
